Experimental data from PubChem BioAssay AID256 (DTP/NCI, 2004).
Values joined by “and” are separate entries in the source; they are usually repeats but may differ in a detail not shown here. Identical values can stand only once. Toxic doses and inconclusive results are not listed.

Tested on: CD2F1 mice, L1210 leukemia ip, survival T/C
Test: NCI In Vivo Anticancer Drug Screen. Data for tumor model L1210 Leukemia (intraperitoneal) in CD2F1 (CDF1) mice
Details: higher = longer survival
Summary of the method: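 Antitumor effect is scored in animals hosting a serially transplanted tumor. Values compare compound-dosed animals against vehicle-only controls as a simple quotient.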

In the case of `COc1cc2c(cc1O)NC(OC)C1CC(O)CN1C2=O` (stereo not drawn), the T/C (endpoint: median survival time, dose: 0.02 mg/kg/injection, schedule: Q01DX005 (ip), vehicle: DMSO) is reported as 101 % of control, the T/C (endpoint: median survival time, dose: 0.4 mg/kg/injection, schedule: Q01DX005 (ip), vehicle: DMSO) is reported as 102 % of control and the T/C (endpoint: median survival time, dose: 0.8 mg/kg/injection, schedule: Q01DX005 (ip), vehicle: DMSO) is reported as 100 % of control. The T/C (endpoint: median survival time, dose: 1.6 mg/kg/injection, schedule: Q01DX005 (ip), vehicle: DMSO) was 102 % of control, the T/C (endpoint: median survival time, dose: 3.2 mg/kg/injection, schedule: Q01DX005 (ip), vehicle: DMSO) was 111 % of control and the T/C (endpoint: median survival time, dose: 6.4 mg/kg/injection, schedule: Q01DX005 (ip), vehicle: DMSO) was 115 % of control.

For `CO[C@]12[C@@H](COC(=O)NCCO)C3=C(C(=O)C(C)=C(N)C3=O)N1C[C@@H]1[C@H]2N1C` (stereo partly drawn), the T/C (endpoint: mean survival time, dose: 12.5 mg/kg/injection, schedule: Q01DX009 (ip), vehicle: saline) was 112 % of control, the T/C (endpoint: mean survival time, dose: 50.0 mg/kg/injection, schedule: Q01DX009 (ip), vehicle: saline) was 119 % of control and the T/C (endpoint: mean survival time, dose: 75.0 mg/kg/injection, schedule: Q01DX001 (ip), vehicle: saline) was 114 % of control. The T/C (endpoint: mean survival time, dose: 150.0 mg/kg/injection, schedule: Q01DX001 (ip), vehicle: saline) was 116 % of control and the T/C (endpoint: mean survival time, dose: 200.0 mg/kg/injection, schedule: Q01DX009 (ip), vehicle: saline) was 112 % of control.

`Clc1cc(CBr)c2ccccc2n1` was tested, and the T/C (endpoint: mean survival time, dose: 100.0 mg/kg/injection, schedule: Q04DX002 (ip), vehicle: saline with Tween-80) was 101 % of control.

For `CC1=CC2C(O)(CC(CO)=CC3C4C(C)(C)C4(OC(=O)c4ccccc4)C(OC(=O)c4ccccc4)C(C)C32O)C1=O` (stereo not drawn), the T/C (endpoint: median survival time, dose: 0.25 mg/kg/injection, schedule: Q01DX009 (ip), vehicle: saline with Tween-80) was 95 % of control, the T/C (endpoint: median survival time, dose: 0.5 mg/kg/injection, schedule: Q01DX009 (ip), vehicle: saline with Tween-80) was 94 % of control and the T/C (endpoint: median survival time, dose: 1.0 mg/kg/injection, schedule: Q01DX009 (ip), vehicle: saline with Tween-80) was 94 % of control.

In the case of `CC(C)(C)OC(=O)C(CC(=O)O)=C(c1ccccc1)c1ccccc1`, the T/C (endpoint: mean survival time, dose: 100.0 mg/kg/injection, schedule: Q01DX009 (ip), vehicle: Klucel (hydroxypropylcellulose) (HPC)) is reported as 102 % of control, the T/C (endpoint: mean survival time, dose: 100.0 mg/kg/injection, schedule: Q04DX003 (ip), vehicle: Klucel (hydroxypropylcellulose) (HPC)) is reported as 101 % of control and the T/C (endpoint: mean survival time, dose: 200.0 mg/kg/injection, schedule: Q01DX009 (ip), vehicle: Klucel (hydroxypropylcellulose) (HPC)) is reported as 100 % of control. For the same compound, the T/C (endpoint: mean survival time, dose: 200.0 mg/kg/injection, schedule: Q04DX003 (ip), vehicle: Klucel (hydroxypropylcellulose) (HPC)) was 103 % of control, the T/C (endpoint: mean survival time, dose: 400.0 mg/kg/injection, schedule: Q01DX009 (ip), vehicle: Klucel (hydroxypropylcellulose) (HPC)) was 104 % of control and the T/C (endpoint: mean survival time, dose: 400.0 mg/kg/injection, schedule: Q04DX003 (ip), vehicle: Klucel (hydroxypropylcellulose) (HPC)) was 109 % of control.

In the case of `C=CC(CN1CC1)OC(C)=O` (stereo not drawn), the T/C (endpoint: mean survival time, dose: 2.5 mg/kg/injection, schedule: Q03DX003 (ip), vehicle: saline) is reported as 107 % of control, the T/C (endpoint: mean survival time, dose: 2.5 mg/kg/injection, schedule: Q04DX003 (ip), vehicle: saline) is reported as 100 % of control and the T/C (endpoint: mean survival time, dose: 3.75 mg/kg/injection, schedule: Q01DX009 (ip), vehicle: saline) is reported as 159 % of control. For the same compound, the T/C (endpoint: mean survival time, dose: 5.0 mg/kg/injection, schedule: Q01DX007 (ip), vehicle: saline) was 172 % of control, the T/C (endpoint: mean survival time, dose: 5.0 mg/kg/injection, schedule: Q01DX009 (ip), vehicle: saline) was 160 % of control and the T/C (endpoint: mean survival time, dose: 5.0 mg/kg/injection, schedule: Q03DX003 (ip), vehicle: saline) was 121 % of control. The T/C (endpoint: mean survival time, dose: 5.0 mg/kg/injection, schedule: Q04DX003 (ip), vehicle: saline) was 111 % of control, the T/C (endpoint: mean survival time, dose: 7.5 mg/kg/injection, schedule: Q01DX009 (ip), vehicle: saline) was 206 % of control and 249 % of control and the T/C (endpoint: mean survival time, dose: 10.0 mg/kg/injection, schedule: Q04DX003 (ip), vehicle: saline) was 153 % of control. The T/C (endpoint: mean survival time, dose: 30.0 mg/kg/injection, schedule: Q01DX009 (ip), vehicle: saline) was 91 % of control.

In the case of `c1ccc([Te][Te]c2ccccc2)cc1`, the T/C (endpoint: median survival time, dose: 12.5 mg/kg/injection, schedule: Q01DX009 (ip), vehicle: saline with Tween-80) is reported as 104 % of control, the T/C (endpoint: median survival time, dose: 25.0 mg/kg/injection, schedule: Q01DX009 (ip), vehicle: saline with Tween-80) is reported as 108 % of control and the T/C (endpoint: median survival time, dose: 50.0 mg/kg/injection, schedule: Q01DX009 (ip), vehicle: saline with Tween-80) is reported as 104 % of control.

For `O=c1cc(Cl)c(=O)[nH][nH]1`, the T/C (endpoint: mean survival time, dose: 100.0 mg/kg/injection, schedule: Q01DX001 (ip), vehicle: other) was 104 % of control, the T/C (endpoint: mean survival time, dose: 100.0 mg/kg/injection, schedule: Q01DX009 (ip), vehicle: saline with Tween-80) was 92 % of control and the T/C (endpoint: mean survival time, dose: 100.0 mg/kg/injection, schedule: Q04DX003 (ip), vehicle: saline with Tween-80) was 94 % of control. The T/C (endpoint: mean survival time, dose: 200.0 mg/kg/injection, schedule: Q01DX001 (ip), vehicle: other) was 97 % of control, the T/C (endpoint: mean survival time, dose: 200.0 mg/kg/injection, schedule: Q01DX009 (ip), vehicle: saline with Tween-80) was 94 % of control and the T/C (endpoint: mean survival time, dose: 200.0 mg/kg/injection, schedule: Q04DX003 (ip), vehicle: saline with Tween-80) was 94 % of control. The T/C (endpoint: mean survival time, dose: 400.0 mg/kg/injection, schedule: Q01DX001 (ip), vehicle: other) was 98 % of control, the T/C (endpoint: mean survival time, dose: 400.0 mg/kg/injection, schedule: Q01DX009 (ip), vehicle: saline with Tween-80) was 97 % of control and the T/C (endpoint: mean survival time, dose: 400.0 mg/kg/injection, schedule: Q04DX003 (ip), vehicle: saline with Tween-80) was 96 % of control.
